Assay results from publication PMC10178848, “Modulating fast skeletal muscle contraction protects skeletal muscle in animal models of Duchenne muscular dystrophy” (The Journal of Clinical Investigation, 2023).
pIC50: −log10 of the molar value. Like-named read-outs stand apart in the source and are kept apart here.

Columns and labels:
[1] = test system: Neonatal Rat (P1) myofibrils; assay: Myofibril ATPase, neonatal rat; type: biochemical
Protocol: Myofibrils were prepared from various animals and tissues: rabbit psoas muscle and porcine cardiac muscle were purchased from Pel-Freez Biologicals. Human bicep and soleus muscle were purchased from BioIVT, and neonatal rat muscle was obtained in house. All myofibrils were prepared using published methods ([21]).
A lactate dehydrogenase/pyruvate kinase enzyme-coupled system ([62]) was used to monitor ATP hydrolysis rates in various muscle preparations. Rabbit psoas myofibrils were used for high-throughput screening at pCa 6.25 at 0.25 mg/mL. A multidrop cassette (Thermo Fisher Scientific) dispensed 10 μL of the coupled enzyme system, calcium, and myofibrils to 10 μL ATP, NADH and PEP to initiate the reaction prior to reading on a plate reader (Envision, Perkin Elmer) for 10 minutes per plate at room temperature. Hits were reconfirmed, and secondary assays were used to evaluate selectivity, including bovine cardiac myofibrils (pCa 5.86) and enzyme coupled hits with a hexokinase screen (Sigma-Aldrich).

[2] = molecular target: 78 proteins, including GPCR, ion channel, kinases, nuclear hormone receptors, and transporters; assay: SAFETYscan E/IC50 ELECT off-target panel (whole panel); conditions: read-out: IC50 in all SAFETYscan assays
Protocol: (§1) The specificity of EDG-5506 for fast skeletal myosin over other, unrelated proteins was confirmed using two off-target binding and activity screens. […] A second off-target panel (SAFETYscan E/IC50 ELECT, Eurofins DiscoverX) tested in vitro enzyme activity against 78 proteins, including GPCR, ion channel, kinases, nuclear hormone receptors, and transporters. In all assays, the IC50 of EDG-5506 was more than 10 μM (Supplemental Data File 1).

[3] = Muscle concentration in GRMD dogs; type: in vivo, dog; conditions: end of the dosing period
Protocol: We viewed data in mice as encouraging but were interested in testing EDG-5506 in dystrophic golden retriever (GRMD) dogs; their muscle composition and function more closely resemble that of humans ([40]). Older (7 months of age), disease-stable GRMD were dosed in 2-week periods with vehicle, then EDG-5506, followed by a vehicle washout. As fast fiber atrophy has been documented in DMD dogs ([16]), we confirmed sustained fast myosin from biopsies of age-matched WT/GRMD gastrocnemius muscle (Supplemental Figure 6A). EDG-5506 concentration was measured from a muscle biopsy at the end of the dosing period (4,951 ± 217 ng/g muscle). EDG-5506 administration was associated with a more than 50% decrease in CK, returning to pretreatment levels after compound washout (Figure 6A). Physical activity normally increases CK in GRMD ([41]), raising the question of whether EDG-5506 lowered CK via decreasing physical activity. We sought to test the effect of EDG-5506 on habitual activity in the same dogs using an activity monitor ([42]). EDG-5506 improved average daily activity by more than 30% (Figure 6B and Supplemental Figure 6B) with reversible increases in time active and decreases in time resting (Figure 6C). One GRMD used in the biomarker study was too severely progressed to participate in this study.

ADCK3 = molecular target: T1, ADCK3 (Homo sapiens, UniProt Q8NI60); assay: KINOMEscan scanEDGE; type: binding; conditions: 20 uM
T1 construct: purchased Eurofins DiscoverX (KINOMEscan; SAFETYscan E/IC50 ELECT)
T1 sequence (Q8NI60 163-647): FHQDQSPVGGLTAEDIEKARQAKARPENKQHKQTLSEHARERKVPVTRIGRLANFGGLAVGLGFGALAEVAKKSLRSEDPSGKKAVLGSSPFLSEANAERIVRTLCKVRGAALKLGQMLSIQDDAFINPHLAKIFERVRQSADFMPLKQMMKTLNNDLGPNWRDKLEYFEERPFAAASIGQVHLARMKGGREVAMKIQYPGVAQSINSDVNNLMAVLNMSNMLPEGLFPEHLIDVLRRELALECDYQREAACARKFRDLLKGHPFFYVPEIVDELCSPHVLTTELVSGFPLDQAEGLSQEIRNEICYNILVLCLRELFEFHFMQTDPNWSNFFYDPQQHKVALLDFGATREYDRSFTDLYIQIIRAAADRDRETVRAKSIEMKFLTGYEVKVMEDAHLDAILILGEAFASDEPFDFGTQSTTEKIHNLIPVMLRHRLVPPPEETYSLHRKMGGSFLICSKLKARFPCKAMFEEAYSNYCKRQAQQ

AURKA = molecular target: T2, AURKA (Homo sapiens, UniProt O14965); assay: KINOMEscan scanEDGE; type: binding; conditions: 20 uM
T2 construct: purchased Eurofins DiscoverX (KINOMEscan; SAFETYscan E/IC50 ELECT)
T2 sequence (O14965 whole entry): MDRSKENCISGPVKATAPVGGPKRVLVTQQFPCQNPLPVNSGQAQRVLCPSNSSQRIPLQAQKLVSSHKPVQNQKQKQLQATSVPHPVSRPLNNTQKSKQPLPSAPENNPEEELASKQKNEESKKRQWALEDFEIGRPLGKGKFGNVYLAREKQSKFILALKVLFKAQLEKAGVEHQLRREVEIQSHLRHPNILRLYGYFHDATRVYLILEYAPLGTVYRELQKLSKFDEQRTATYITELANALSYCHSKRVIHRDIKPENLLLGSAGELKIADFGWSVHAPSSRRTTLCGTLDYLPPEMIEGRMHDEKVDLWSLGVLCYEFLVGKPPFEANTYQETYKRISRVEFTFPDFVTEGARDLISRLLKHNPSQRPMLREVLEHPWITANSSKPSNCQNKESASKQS

AURKB = molecular target: T3, AURKB (Homo sapiens, UniProt Q96GD4); assay: KINOMEscan scanEDGE; type: binding; conditions: 20 uM
T3 construct: purchased Eurofins DiscoverX (KINOMEscan; SAFETYscan E/IC50 ELECT)
T3 sequence (Q96GD4 whole entry): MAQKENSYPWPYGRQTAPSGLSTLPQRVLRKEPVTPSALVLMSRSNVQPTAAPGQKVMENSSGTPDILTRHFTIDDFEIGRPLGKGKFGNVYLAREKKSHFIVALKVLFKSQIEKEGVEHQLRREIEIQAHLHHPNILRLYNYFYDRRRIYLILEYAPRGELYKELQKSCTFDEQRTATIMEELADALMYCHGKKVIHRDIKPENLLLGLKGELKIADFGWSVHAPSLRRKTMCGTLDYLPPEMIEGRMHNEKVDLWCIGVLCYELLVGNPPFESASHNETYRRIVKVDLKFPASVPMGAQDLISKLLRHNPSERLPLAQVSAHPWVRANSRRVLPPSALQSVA

CDK11 = molecular target: T4, CDK11 (Homo sapiens, UniProt Q9BWU1); assay: KINOMEscan scanEDGE; type: binding; conditions: 20 uM
T4 construct: purchased Eurofins DiscoverX (KINOMEscan; SAFETYscan E/IC50 ELECT)

ERK1 = molecular target: T5, ERK1 (Homo sapiens, UniProt P27361); assay: KINOMEscan scanEDGE; type: binding; conditions: 20 uM
T5 construct: purchased Eurofins DiscoverX (KINOMEscan; SAFETYscan E/IC50 ELECT)
T5 sequence (P27361 whole entry): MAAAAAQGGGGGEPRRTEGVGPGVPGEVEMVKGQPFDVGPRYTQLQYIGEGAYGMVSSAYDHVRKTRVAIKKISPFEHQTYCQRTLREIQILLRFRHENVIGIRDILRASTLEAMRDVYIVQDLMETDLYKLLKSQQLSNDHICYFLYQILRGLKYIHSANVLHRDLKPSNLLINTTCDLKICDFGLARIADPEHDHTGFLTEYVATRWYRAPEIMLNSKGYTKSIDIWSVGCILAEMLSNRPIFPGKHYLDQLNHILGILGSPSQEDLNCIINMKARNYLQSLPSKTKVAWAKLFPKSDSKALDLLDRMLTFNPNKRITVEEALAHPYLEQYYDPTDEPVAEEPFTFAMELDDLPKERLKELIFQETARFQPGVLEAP

MEK1 = molecular target: T6, MEK1 (Homo sapiens, UniProt Q02750); assay: KINOMEscan scanEDGE; type: binding; conditions: 20 uM
T6 construct: purchased Eurofins DiscoverX (KINOMEscan; SAFETYscan E/IC50 ELECT)

MEK2 = molecular target: T7, MEK2 (Homo sapiens, UniProt P36507); assay: KINOMEscan scanEDGE; type: binding; conditions: 20 uM
T7 construct: purchased Eurofins DiscoverX (KINOMEscan; SAFETYscan E/IC50 ELECT)
T7 sequence (P36507 whole entry): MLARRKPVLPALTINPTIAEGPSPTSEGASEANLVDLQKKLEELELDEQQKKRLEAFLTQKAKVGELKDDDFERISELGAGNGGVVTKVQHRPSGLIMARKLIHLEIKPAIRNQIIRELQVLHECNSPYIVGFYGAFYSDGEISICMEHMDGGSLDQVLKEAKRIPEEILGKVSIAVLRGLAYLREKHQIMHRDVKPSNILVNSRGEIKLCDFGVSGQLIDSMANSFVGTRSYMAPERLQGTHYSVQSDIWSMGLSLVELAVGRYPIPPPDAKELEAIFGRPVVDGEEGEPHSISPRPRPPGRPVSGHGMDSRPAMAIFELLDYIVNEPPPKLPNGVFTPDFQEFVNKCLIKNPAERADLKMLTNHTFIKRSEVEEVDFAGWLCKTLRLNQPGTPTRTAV

p38-beta = molecular target: T8, p38-beta (Homo sapiens, UniProt Q15759); assay: KINOMEscan scanEDGE; type: binding; conditions: 20 uM
T8 construct: purchased Eurofins DiscoverX (KINOMEscan; SAFETYscan E/IC50 ELECT)

PAK1 = molecular target: T9, PAK1 (Homo sapiens, UniProt Q13153); assay: KINOMEscan scanEDGE; type: binding; conditions: 20 uM
T9 construct: purchased Eurofins DiscoverX (KINOMEscan; SAFETYscan E/IC50 ELECT)

PAK2 = molecular target: T10, PAK2 (Homo sapiens, UniProt Q13177); assay: KINOMEscan scanEDGE; type: binding; conditions: 20 uM
T10 construct: purchased Eurofins DiscoverX (KINOMEscan; SAFETYscan E/IC50 ELECT)

PIK3CA = molecular target: T11, PIK3CA (Homo sapiens, UniProt P42336); assay: KINOMEscan scanEDGE; type: binding; conditions: 20 uM
T11 construct: purchased Eurofins DiscoverX (KINOMEscan; SAFETYscan E/IC50 ELECT)

PLK4 = molecular target: T12, PLK4 (Homo sapiens, UniProt O00444); assay: KINOMEscan scanEDGE; type: binding; conditions: 20 uM
T12 construct: purchased Eurofins DiscoverX (KINOMEscan; SAFETYscan E/IC50 ELECT)

CAV1.2 = molecular target: T13, CAV1.2 (Homo sapiens, UniProt Q13936); assay: SAFETYscan Ion Channel; type: cell-based; design: dose or concentration left out as unconfirmed; conditions: read-out: Max Response (%) (Agonist)
T13 construct: purchased Eurofins DiscoverX (KINOMEscan; SAFETYscan E/IC50 ELECT)
Protocol: as §1

HTR3A = molecular target: T14, HTR3A (Homo sapiens, UniProt P46098); assay: SAFETYscan Ion Channel; type: cell-based; design: dose or concentration left out as unconfirmed
T14 construct: purchased Eurofins DiscoverX (KINOMEscan; SAFETYscan E/IC50 ELECT)
T14 sequence (P46098 24-478): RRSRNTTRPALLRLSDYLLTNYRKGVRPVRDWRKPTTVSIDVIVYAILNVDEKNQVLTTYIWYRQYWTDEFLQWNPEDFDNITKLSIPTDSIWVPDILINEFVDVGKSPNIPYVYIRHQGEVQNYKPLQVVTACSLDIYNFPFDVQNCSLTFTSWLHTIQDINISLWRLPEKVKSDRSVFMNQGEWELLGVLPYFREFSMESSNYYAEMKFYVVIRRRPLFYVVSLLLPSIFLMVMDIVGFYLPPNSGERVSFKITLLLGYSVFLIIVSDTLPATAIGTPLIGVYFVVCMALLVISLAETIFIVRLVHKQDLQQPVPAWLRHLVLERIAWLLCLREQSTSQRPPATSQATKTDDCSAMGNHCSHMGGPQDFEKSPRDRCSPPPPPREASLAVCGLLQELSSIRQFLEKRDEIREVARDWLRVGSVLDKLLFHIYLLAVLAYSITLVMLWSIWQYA
Protocol: as §1

KvLQT1/minK = molecular target: T15, KvLQT1/minK (Homo sapiens, UniProt P51787); assay: SAFETYscan Ion Channel; type: cell-based; design: dose or concentration left out as unconfirmed
T15 construct: purchased Eurofins DiscoverX (KINOMEscan; SAFETYscan E/IC50 ELECT)
Protocol: as §1

NAV1.5 = molecular target: T16, NAV1.5 (Homo sapiens, UniProt Q14524); assay: SAFETYscan Ion Channel; type: cell-based; design: dose or concentration left out as unconfirmed; conditions: read-out: Max Response (%) (Antagonist)
T16 construct: purchased Eurofins DiscoverX (KINOMEscan; SAFETYscan E/IC50 ELECT)
Protocol: as §1

NMDAR (1A/2B) = molecular target: T17, NMDAR (1A/2B) (Homo sapiens, UniProt Q05586+Q13224); assay: SAFETYscan Ion Channel; type: cell-based; design: dose or concentration left out as unconfirmed
T17 construct: purchased Eurofins DiscoverX (KINOMEscan; SAFETYscan E/IC50 ELECT)
T17 sequence (Q13224 27-1484, other chains not shown): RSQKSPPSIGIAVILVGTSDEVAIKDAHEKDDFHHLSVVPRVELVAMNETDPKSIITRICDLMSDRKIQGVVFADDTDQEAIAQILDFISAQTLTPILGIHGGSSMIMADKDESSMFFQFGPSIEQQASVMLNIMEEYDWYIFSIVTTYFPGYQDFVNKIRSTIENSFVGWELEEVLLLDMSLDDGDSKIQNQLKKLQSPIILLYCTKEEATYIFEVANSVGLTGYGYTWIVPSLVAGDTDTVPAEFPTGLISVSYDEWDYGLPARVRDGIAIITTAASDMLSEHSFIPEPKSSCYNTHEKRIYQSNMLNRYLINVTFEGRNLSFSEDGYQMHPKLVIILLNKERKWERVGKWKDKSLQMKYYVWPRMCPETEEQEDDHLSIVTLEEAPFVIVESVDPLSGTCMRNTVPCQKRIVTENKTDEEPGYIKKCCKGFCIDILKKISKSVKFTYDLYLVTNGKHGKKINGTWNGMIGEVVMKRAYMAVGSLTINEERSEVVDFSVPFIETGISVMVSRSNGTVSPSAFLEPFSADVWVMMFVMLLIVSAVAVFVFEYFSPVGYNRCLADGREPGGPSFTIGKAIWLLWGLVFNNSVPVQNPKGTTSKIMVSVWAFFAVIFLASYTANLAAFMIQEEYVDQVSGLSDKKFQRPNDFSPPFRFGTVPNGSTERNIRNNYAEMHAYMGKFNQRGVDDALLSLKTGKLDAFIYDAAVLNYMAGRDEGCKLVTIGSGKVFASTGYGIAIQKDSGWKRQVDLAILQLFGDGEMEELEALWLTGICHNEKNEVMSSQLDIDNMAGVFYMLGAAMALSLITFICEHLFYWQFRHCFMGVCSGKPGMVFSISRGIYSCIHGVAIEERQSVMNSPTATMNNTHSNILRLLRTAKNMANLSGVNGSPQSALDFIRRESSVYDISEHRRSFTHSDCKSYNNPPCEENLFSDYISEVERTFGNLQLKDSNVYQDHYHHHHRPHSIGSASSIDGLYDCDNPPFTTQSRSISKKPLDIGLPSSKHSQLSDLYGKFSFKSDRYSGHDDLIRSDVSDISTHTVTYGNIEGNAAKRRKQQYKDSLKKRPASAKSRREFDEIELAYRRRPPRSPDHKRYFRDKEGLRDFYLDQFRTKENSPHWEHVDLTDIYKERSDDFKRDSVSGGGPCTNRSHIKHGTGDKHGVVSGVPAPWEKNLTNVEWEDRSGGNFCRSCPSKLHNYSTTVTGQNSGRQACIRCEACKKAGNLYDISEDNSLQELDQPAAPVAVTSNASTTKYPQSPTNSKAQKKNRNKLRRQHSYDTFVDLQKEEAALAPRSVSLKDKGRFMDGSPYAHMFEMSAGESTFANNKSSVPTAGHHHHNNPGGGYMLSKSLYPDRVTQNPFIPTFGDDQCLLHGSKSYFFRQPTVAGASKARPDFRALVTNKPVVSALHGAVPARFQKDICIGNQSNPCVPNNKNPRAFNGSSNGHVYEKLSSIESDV
Protocol: as §1

hERG = molecular target: T18, hERG (Homo sapiens, UniProt Q12809); assay: SAFETYscan Ion Channel; type: cell-based; design: dose or concentration left out as unconfirmed; conditions: read-out: Max Response (%) (Agonist)
T18 construct: purchased Eurofins DiscoverX (KINOMEscan; SAFETYscan E/IC50 ELECT)
Protocol: as §1

nAChR(a4/b2) = molecular target: T19, nAChR(a4/b2) (Homo sapiens, UniProt P17787+P43681); assay: SAFETYscan Ion Channel; type: cell-based; design: dose or concentration left out as unconfirmed
T19 construct: purchased Eurofins DiscoverX (KINOMEscan; SAFETYscan E/IC50 ELECT)
T19 sequence (P43681 29-627 limits assumed): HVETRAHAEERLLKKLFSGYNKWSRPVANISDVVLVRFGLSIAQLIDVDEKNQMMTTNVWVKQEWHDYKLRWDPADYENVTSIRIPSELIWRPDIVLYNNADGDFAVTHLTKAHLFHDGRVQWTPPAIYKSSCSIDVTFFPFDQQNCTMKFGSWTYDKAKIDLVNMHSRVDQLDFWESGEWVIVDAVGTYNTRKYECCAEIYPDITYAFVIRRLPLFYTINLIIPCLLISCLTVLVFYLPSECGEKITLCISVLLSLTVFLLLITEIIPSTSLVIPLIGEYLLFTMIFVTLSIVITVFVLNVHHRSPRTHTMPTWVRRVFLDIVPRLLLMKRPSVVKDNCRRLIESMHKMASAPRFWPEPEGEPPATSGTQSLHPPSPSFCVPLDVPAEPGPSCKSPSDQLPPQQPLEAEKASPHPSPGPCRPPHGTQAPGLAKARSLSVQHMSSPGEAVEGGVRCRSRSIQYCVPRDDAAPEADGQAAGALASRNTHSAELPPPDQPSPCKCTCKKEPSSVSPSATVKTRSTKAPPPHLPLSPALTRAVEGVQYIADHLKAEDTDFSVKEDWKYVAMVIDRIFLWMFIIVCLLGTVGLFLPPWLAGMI
T19 sequence (P17787 26-502): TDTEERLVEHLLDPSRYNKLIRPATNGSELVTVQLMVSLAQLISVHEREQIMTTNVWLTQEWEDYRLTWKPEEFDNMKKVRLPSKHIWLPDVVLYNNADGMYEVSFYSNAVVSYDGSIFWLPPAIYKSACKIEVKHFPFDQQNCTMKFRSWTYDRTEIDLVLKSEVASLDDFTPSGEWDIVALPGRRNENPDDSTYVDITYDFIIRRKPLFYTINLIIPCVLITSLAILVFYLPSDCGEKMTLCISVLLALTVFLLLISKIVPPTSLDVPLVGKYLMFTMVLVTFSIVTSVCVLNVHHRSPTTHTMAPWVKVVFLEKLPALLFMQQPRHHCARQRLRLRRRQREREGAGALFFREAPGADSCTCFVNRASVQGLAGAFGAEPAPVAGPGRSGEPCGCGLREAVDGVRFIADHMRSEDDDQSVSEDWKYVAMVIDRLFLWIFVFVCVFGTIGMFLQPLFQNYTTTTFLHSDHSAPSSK
Protocol: as §1

[4] = read-out: Max Response (%) (Agonist)
[5] = read-out: Max Response (%) (Antagonist)

O=c1ccc(-c2cnc(OCC(F)(F)F)nc2)nn1Cc1cncc(F)c1 [EDG-5506]
Maximum Inhibition (%) ([1]; neonatal rat (P1) myofibrils): 96%
pIC50 ([1]; neonatal rat (P1), 100% neonatal/embryonic MHC): 6.70
pIC50 [2]: < 5.00
EDG-5506 concentration in muscle biopsy [3]: 4,951 ± 217 ng/g muscle
binding, % of control (ADCK3): 93 % of control
binding, % of control (AURKA): 99 % of control
binding, % of control (AURKB): 82 % of control
binding, % of control (CDK11): 95 % of control
binding, % of control (ERK1): 100 % of control
binding, % of control (MEK1): 78 % of control
binding, % of control (MEK2): 72 % of control
binding, % of control (p38-beta): 54 % of control
binding, % of control (PAK1): 100 % of control
binding, % of control (PAK2): 98 % of control
binding, % of control (PIK3CA): 100 % of control
binding, % of control (PLK4): 90 % of control
Emax (CAV1.2): 26.5%
Emax (HTR3A; [4]): 0.36%
Emax (HTR3A; [5]): 8.58%
Emax (KvLQT1/minK; [4]): 0%
Emax (KvLQT1/minK; [5]): 18.6%
Emax (NAV1.5): 2.32%
Emax (NMDAR (1A/2B); [4]): 0%
Emax (NMDAR (1A/2B); [5]): 0%
Emax (hERG): 13.1%
Emax (nAChR(a4/b2); [4]): 0%
Emax (nAChR(a4/b2); [5]): 0%
